Test results taken from US9522194B2, “Methods of using monomethylvaline compositions having phenylalanine carboxy modifications at the C-terminus” (priority 2005, dated 2016).
Non-standard residues stand in square brackets, D forms with d. Residues, ends and D or L forms follow the SMILES beside them. ξ: configuration not given here. *: point of attachment. Dolaproine = CO[C@@H]([C@@H]1CCCN1)[C@@H](C)C(=O)O; Dil = CC[C@H](C)[C@H](NC)[C@@H](CC(=O)O)OC; X1 = c1ccc(C[C@H](N*)c2nn[nH]n2)cc1; X2 = C[C@@H](N*)[C@@H](O)c1ccccc1; NMeV = CN[C@H](C(=O)O)C(C)C; ξNMeV = CNC(C(=O)O)C(C)C

How the values were obtained:
[1] = test system: breast carcinoma cell line H3396; experiment: In vitro activity of free drugs; format: cell-based; conditions: free drug
Experimental: The cytotoxic activity of MMAZ and other compounds is evaluated on the Lewis Y positive cell lines OVCAR-3, H3396 breast carcinoma, L2987 lung carcinoma and LS174t colon carcinoma Lewis Y positive cell lines can be assayed for cytotoxicity. To evaluate the cytotoxicity of compounds, cells can be seeded at approximately 5-10,000 per well in 150 μl of culture medium then treated with graded doses of compounds in quadruplicates at the initiation of assay. Cytotoxicity assays are usually carried out for 96 hours after addition of test compounds. Fifty μl of resazurin dye may be added to each well during the last 4 to 6 hours of the incubation to assess viable cells at the end of culture. Dye reduction can be determined by fluorescence spectrometry using the excitation and emission wavelengths of 535 nm and 590 nm, respectively. For analysis, the extent of resazurin reduction by the treated cells can be compared to that of the untreated control cells.

[2] = test system: Hodgkin's disease cell line L428; experiment: In vitro cytotoxicity of free drugs (resazurin, 96 h); format: cell-based; conditions: free drug, read-out: IC50s (nM) L428
[3] = test system: anaplastic large cell lymphoma cell line Karpas 299; experiment: as above; format: cell-based, human; conditions: free drug, read-out: IC50s (nM) Karpas 299
[4] = test system: renal cell carcinoma cell line 786-O; experiment: as above; format: cell-based; conditions: free drug, read-out: IC50s (nM) 786-O
[5] = test system: colon carcinoma cell line HCT-116; experiment: as above; format: cell-based; conditions: free drug, read-out: IC50s (nM) HCT-116
[6] = test system: renal cell carcinoma cell line Caki-1; experiment: as above; format: cell-based; conditions: free drug, read-out: IC50s (nM) Caki-1
[7] = test system: Hodgkin's disease cell line L540cy; experiment: as above; format: cell-based; conditions: free drug, read-out: IC50s (nM) L540cy
[8] = test system: CD70+ 786-O renal cell carcinoma cell line; experiment: In vitro efficacy of antibody drug conjugates, 96 hours incubation; format: cell-based
[9] = test system: CD70+ Caki-1 renal cell carcinoma cell line; experiment: as above; format: cell-based
CD30+ L540cy cell line = experiment: as above; format: cell-based; conditions: cAC10 (chimeric anti-CD30) conjugate of the named linker-drug, 4 drugs per antibody
Experimental: (§1) To evaluate the cytotoxicity of Exemplary Conjugates, cells are seeded at approximately 5-10,000 per well in 150 μl of culture medium then treated with graded doses of Exemplary Conjugates in quadruplicates at the initiation of assay. Cytotoxicity assays are carried out for 96 hours after addition of test compounds. Fifty μl of the resazurin dye is added to each well during the last 4 to 6 hours of the incubation to assess viable cells at the end of culture. Dye reduction is determined by fluorescence spectrometry using the excitation and emission wavelengths of 535 nm and 590 nm, respectively. For analysis, the extent of resazurin reduction by the treated cells is compared to that of the untreated control cells.
(§2) IC50 values are defined as the concentration where growth is reduced 50% compared with untreated control cultures. Each concentration is tested in quadruplicate. The conjugates contain 4 drugs per antibody.

[10] = test system: L428 cell line (CD70+, CD30+); experiment: as above; format: cell-based
[11] = test system: CD30+ Karpas 299 cell line; experiment: as above; format: cell-based, human; conditions: cAC10 (chimeric anti-CD30) conjugate of the named linker-drug, 4 drugs per antibody
Experimental: as §1, §2

Compound | IC50 of c1F6 ADCs (ng/mL) 786-O [8] [ng/mL] | IC50 of c1F6 ADCs (ng/mL) Caki-1 [9] [ng/mL] | IC50 of cAC10 ADCs (ng/mL) L540cy (CD30+ L540cy cell line) [ng/mL] | IC50 of cAC10 ADCs (ng/mL) L428 [10] [ng/mL] | IC50 of cAC10 ADCs (ng/mL) Karpas 299 [11] [ng/mL] | also measured
CC[C@H](C)[C@@H]([C@@H](CC(=O)N1CCC[C@H]1[C@H](OC)[C@@H](C)C(=O)N[C@@H](Cc1ccccc1)c1nn[nH]n1)OC)N(C)C(=O)[C@@H](NC(=O)C(NC)C(C)C)C(C)C (some centres unmarked) [Drug 1003] (H-[ξNMeV]V[Dil][Dolaproine]-X1) |  |  |  |  |  | IC50 ([1]; Homo sapiens): 6 nM
CC[C@H](C)[C@@H]([C@@H](CC(=O)N1CCC[C@H]1[C@H](OC)[C@@H](C)C(=O)N[C@H](C)[C@@H](O)c1ccccc1)OC)N(C)C(=O)[C@@H](NC(=O)[C@@H](NC)C(C)C)C(C)C [MMAE] (H-[NMeV]V[Dil][Dolaproine]-X2) |  |  |  |  |  | IC50 [1]: 0.7 nM
CC[C@H](C)[C@@H]([C@@H](CC(=O)N1CCC[C@H]1[C@H](OC)[C@@H](C)C(=O)N[C@@H](Cc1ccccc1)C(=O)O)OC)N(C)C(=O)[C@@H](NC(=O)[C@@H](NC)C(C)C)C(C)C [MMAF, N-methylvaline-valine-dolaisoleuine-dolaproine-phenylalanine] (H-[NMeV]V[Dil][Dolaproine]F-OH) |  |  |  |  |  | IC50 [2]: 58 nM; IC50 [3]: 240 nM; IC50 [4]: 380 nM; IC50 [5]: 310 nM; IC50 [6]: 234 nM; IC50 [1]: 15 nM; IC50 [7]: 130 nM
CO[C@@]12[C@H](COC(N)=O)C3=C(C(=O)C(C)=C(N)C3=O)N1C[C@@H]1N[C@@H]12 [Mitomycin C] |  |  |  |  |  | IC50 [2]: 187 nM; IC50 [3]: 105 nM; IC50 [4]: 32.3 nM; IC50 [5]: 166 nM; IC50 [6]: 14.5 nM; IC50 [7]: 134 nM
MaleimidocaproylNMeValValDilDapphosphonoPhe [mc-MMApF-A] | 3.5 | 8.9 | 2.7 | 0.423 | 10.9 | 
MaleimidocaproylNMeValValDilDapphosphonoPhe [mc-MMApF-B] | >1000 | >1000 | >5000 | >5000 | >5000 | 
MaleimidocaproylValCitp-aminobenzoyl-NMeValValDil-DapphosphonoPhe [mc-vc-PAB-MMApF] | >1000 | 29.5 |  |  |  | 
mc-MMAF | 135 | 47.3 | 3.4 | 1.3 | 7.6 | 
